Reference: PubChem BioAssay (NCI)
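48-hour exposure; five concentrations; linearly interpolated endpoints. TGI: total growth inhibition.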

Key:
Assay in all cases: growth of human tumour cells (NCI), 48 h
MOLT-4 leukemia = test system: MOLT-4 leukemia
HOP-92 NSCLC = test system: HOP-92 NSCLC
SF-295 CNS = test system: SF-295 CNS
COLO 205 colon = test system: COLO 205 colon
RXF 393 renal = test system: RXF 393 renal
LOX IMVI melanoma = test system: LOX IMVI melanoma
HCT-116 colon = test system: HCT-116 colon
RPMI-8226 leukemia = test system: RPMI-8226 leukemia
UACC-257 melanoma = test system: UACC-257 melanoma
SK-OV-3 ovarian = test system: SK-OV-3 ovarian
DLD-1 colon = test system: DLD-1 colon
M19-MEL melanoma = test system: M19-MEL melanoma
MALME-3M melanoma = test system: MALME-3M melanoma
DMS 114 small cell lung = test system: DMS 114 small cell lung
CCRF-CEM leukemia = test system: CCRF-CEM leukemia
HCC-2998 colon = test system: HCC-2998 colon
TK-10 renal = test system: TK-10 renal
SF-539 CNS = test system: SF-539 CNS
KM12 colon = test system: KM12 colon
SW-620 colon = test system: SW-620 colon
HOP-62 NSCLC = test system: HOP-62 NSCLC
SNB-75 CNS = test system: SNB-75 CNS
A549 NSCLC = test system: A549 NSCLC
OVCAR-3 ovarian = test system: OVCAR-3 ovarian
EKVX NSCLC = test system: EKVX NSCLC
K-562 leukemia = test system: K-562 leukemia
786-0 renal = test system: 786-0 renal
RXF-631 renal = test system: RXF-631 renal
UACC-62 melanoma = test system: UACC-62 melanoma
HL-60(TB) leukemia = test system: HL-60(TB) leukemia
SN12C renal = test system: SN12C renal
U251 CNS = test system: U251 CNS
HT29 colon = test system: HT29 colon
SF-268 CNS = test system: SF-268 CNS
LXFL 529 NSCLC = test system: LXFL 529 NSCLC
OVCAR-8 ovarian = test system: OVCAR-8 ovarian
ACHN renal = test system: ACHN renal
NCI-H522 lung = test system: NCI-H522 lung
M14 melanoma = test system: M14 melanoma
NCI-H460 lung = test system: NCI-H460 lung
KM20L2 colon = test system: KM20L2 colon
UO-31 renal = test system: UO-31 renal
NCI-H23 lung = test system: NCI-H23 lung
HOP-18 NSCLC = test system: HOP-18 NSCLC
HCT-15 colon = test system: HCT-15 colon
SK-MEL-28 melanoma = test system: SK-MEL-28 melanoma
SK-MEL-5 melanoma = test system: SK-MEL-5 melanoma
OVCAR-4 ovarian = test system: OVCAR-4 ovarian
SNB-19 CNS = test system: SNB-19 CNS
NCI-H226 lung = test system: NCI-H226 lung
SR leukemia = test system: SR leukemia
IGROV1 ovarian = test system: IGROV1 ovarian
SK-MEL-2 melanoma = test system: SK-MEL-2 melanoma
OVCAR-5 ovarian = test system: OVCAR-5 ovarian
CAKI-1 renal = test system: CAKI-1 renal
SNB-78 CNS = test system: SNB-78 CNS
DMS 273 small cell lung = test system: DMS 273 small cell lung
A498 renal = test system: A498 renal

## COc1cc(C(=O)Nc2cccc3ccccc23)c(Br)c(OC)c1OC
MOLT-4 leukemia
  TGI: > 100 µM
HOP-92 NSCLC
  TGI: > 100 µM
SF-295 CNS
  TGI: > 100 µM
COLO 205 colon
  TGI: > 100 µM
RXF 393 renal
  TGI: > 100 µM
LOX IMVI melanoma
  TGI: > 100 µM
HCT-116 colon
  TGI: > 100 µM
RPMI-8226 leukemia
  TGI: > 100 µM
UACC-257 melanoma
  TGI: > 100 µM
SK-OV-3 ovarian
  TGI: > 100 µM
DLD-1 colon
  TGI: > 100 µM
M19-MEL melanoma
  TGI: > 100 µM
MALME-3M melanoma
  TGI: > 100 µM
DMS 114 small cell lung
  TGI: > 100 µM
CCRF-CEM leukemia
  TGI: > 100 µM
HCC-2998 colon
  TGI: > 100 µM
TK-10 renal
  TGI: > 100 µM
SF-539 CNS
  TGI: > 100 µM
KM12 colon
  TGI: > 100 µM
SW-620 colon
  TGI: > 100 µM
HOP-62 NSCLC
  TGI: > 100 µM
SNB-75 CNS
  TGI: > 100 µM
A549 NSCLC
  TGI: > 100 µM
OVCAR-3 ovarian
  TGI: > 100 µM
EKVX NSCLC
  TGI: > 100 µM
K-562 leukemia
  TGI: > 100 µM
786-0 renal
  TGI: 3.1 µM
RXF-631 renal
  TGI: > 100 µM
UACC-62 melanoma
  TGI: > 100 µM
HL-60(TB) leukemia
  TGI: 76.2 µM
SN12C renal
  TGI: > 100 µM
U251 CNS
  TGI: > 100 µM
HT29 colon
  TGI: > 100 µM
SF-268 CNS
  TGI: > 100 µM
LXFL 529 NSCLC
  TGI: > 100 µM
OVCAR-8 ovarian
  TGI: 13.6 µM
ACHN renal
  TGI: > 100 µM
NCI-H522 lung
  TGI: > 100 µM
M14 melanoma
  TGI: > 100 µM
NCI-H460 lung
  TGI: > 100 µM
KM20L2 colon
  TGI: > 100 µM
UO-31 renal
  TGI: 86.1 µM
NCI-H23 lung
  TGI: > 100 µM
HOP-18 NSCLC
  TGI: 19.5 µM
HCT-15 colon
  TGI: > 100 µM
SK-MEL-28 melanoma
  TGI: > 100 µM
SK-MEL-5 melanoma
  TGI: > 100 µM
OVCAR-4 ovarian
  TGI: > 100 µM
SNB-19 CNS
  TGI: > 100 µM
NCI-H226 lung
  TGI: > 100 µM
SR leukemia
  TGI: > 100 µM
IGROV1 ovarian
  TGI: > 100 µM
SK-MEL-2 melanoma
  TGI: > 100 µM
OVCAR-5 ovarian
  TGI: > 100 µM
CAKI-1 renal
  TGI: > 100 µM

## CCCCCCCCCCCCC(=O)CCCCC(=O)O
MOLT-4 leukemia
  TGI: 35.7 µM
HOP-92 NSCLC
  TGI: 41.5 µM
SF-295 CNS
  TGI: 51.2 µM
COLO 205 colon
  TGI: 32.7 µM
SNB-78 CNS
  TGI: > 100 µM
RXF 393 renal
  TGI: > 100 µM
LOX IMVI melanoma
  TGI: 46.6 µM
HCT-116 colon
  TGI: 54.6 µM
RPMI-8226 leukemia
  TGI: 40.8 µM
UACC-257 melanoma
  TGI: > 100 µM
SK-OV-3 ovarian
  TGI: > 100 µM
DLD-1 colon
  TGI: 38.1 µM
M19-MEL melanoma
  TGI: 38.9 µM
DMS 273 small cell lung
  TGI: > 100 µM
MALME-3M melanoma
  TGI: 43.6 µM
DMS 114 small cell lung
  TGI: 42 µM
CCRF-CEM leukemia
  TGI: > 100 µM
TK-10 renal
  TGI: > 100 µM
SF-539 CNS
  TGI: 36.6 µM
KM12 colon
  TGI: 29.5 µM
SW-620 colon
  TGI: > 100 µM
HOP-62 NSCLC
  TGI: 41.9 µM
SNB-75 CNS
  TGI: 71.1 µM
A549 NSCLC
  TGI: 44.6 µM
OVCAR-3 ovarian
  TGI: > 100 µM
EKVX NSCLC
  TGI: > 100 µM
K-562 leukemia
  TGI: 39.8 µM
786-0 renal
  TGI: 84.7 µM
RXF-631 renal
  TGI: 38.6 µM
UACC-62 melanoma
  TGI: 36.1 µM
HL-60(TB) leukemia
  TGI: 33.4 µM
SN12C renal
  TGI: 55.8 µM
U251 CNS
  TGI: 79 µM
HT29 colon
  TGI: 30.7 µM
SF-268 CNS
  TGI: 71.6 µM
LXFL 529 NSCLC
  TGI: 35.3 µM
OVCAR-8 ovarian
  TGI: 39.7 µM
ACHN renal
  TGI: 73.7 µM
NCI-H522 lung
  TGI: 42.1 µM
M14 melanoma
  TGI: 33.6 µM
NCI-H460 lung
  TGI: 39.1 µM
UO-31 renal
  TGI: 60 µM
NCI-H23 lung
  TGI: > 100 µM
A498 renal
  TGI: 36.3 µM
HOP-18 NSCLC
  TGI: 59.3 µM
SK-MEL-28 melanoma
  TGI: 46.5 µM
SK-MEL-5 melanoma
  TGI: 34.1 µM
OVCAR-4 ovarian
  TGI: > 100 µM
SNB-19 CNS
  TGI: > 100 µM
NCI-H226 lung
  TGI: 59.1 µM
SR leukemia
  TGI: 47 µM
IGROV1 ovarian
  TGI: 35.3 µM
SK-MEL-2 melanoma
  TGI: 47.4 µM
OVCAR-5 ovarian
  TGI: 35.8 µM
CAKI-1 renal
  TGI: > 100 µM

## Cn1c(C2CCCc3c2c2ccccc2n3C)cc2ccccc21 (stereo unspecified)
MOLT-4 leukemia
  TGI: > 318 µM
HOP-92 NSCLC
  TGI: 299 µM
SF-295 CNS
  TGI: > 318 µM
COLO 205 colon
  TGI: > 318 µM
RXF 393 renal
  TGI: > 318 µM
LOX IMVI melanoma
  TGI: > 318 µM
HCT-116 colon
  TGI: > 318 µM
UACC-257 melanoma
  TGI: > 318 µM
SK-OV-3 ovarian
  TGI: > 318 µM
DLD-1 colon
  TGI: > 318 µM
M19-MEL melanoma
  TGI: > 318 µM
DMS 273 small cell lung
  TGI: > 318 µM
MALME-3M melanoma
  TGI: > 318 µM
DMS 114 small cell lung
  TGI: > 318 µM
CCRF-CEM leukemia
  TGI: > 318 µM
HCC-2998 colon
  TGI: > 318 µM
TK-10 renal
  TGI: > 318 µM
SF-539 CNS
  TGI: > 318 µM
KM12 colon
  TGI: > 318 µM
SW-620 colon
  TGI: > 318 µM
HOP-62 NSCLC
  TGI: > 318 µM
A549 NSCLC
  TGI: > 318 µM
OVCAR-3 ovarian
  TGI: > 318 µM
EKVX NSCLC
  TGI: > 318 µM
K-562 leukemia
  TGI: > 318 µM
786-0 renal
  TGI: > 318 µM
RXF-631 renal
  TGI: > 318 µM
UACC-62 melanoma
  TGI: > 318 µM
HL-60(TB) leukemia
  TGI: > 318 µM
SN12C renal
  TGI: > 318 µM
U251 CNS
  TGI: > 318 µM
HT29 colon
  TGI: > 318 µM
SF-268 CNS
  TGI: > 318 µM
LXFL 529 NSCLC
  TGI: > 318 µM
OVCAR-8 ovarian
  TGI: > 318 µM
ACHN renal
  TGI: > 318 µM
NCI-H522 lung
  TGI: 142 µM
NCI-H460 lung
  TGI: > 318 µM
KM20L2 colon
  TGI: > 318 µM
NCI-H23 lung
  TGI: > 318 µM
HOP-18 NSCLC
  TGI: > 318 µM
HCT-15 colon
  TGI: > 318 µM
SK-MEL-28 melanoma
  TGI: > 318 µM
SK-MEL-5 melanoma
  TGI: > 318 µM
SNB-19 CNS
  TGI: > 318 µM
NCI-H226 lung
  TGI: > 318 µM
SR leukemia
  TGI: > 318 µM
IGROV1 ovarian
  TGI: > 318 µM
SK-MEL-2 melanoma
  TGI: > 318 µM
OVCAR-5 ovarian
  TGI: > 318 µM
CAKI-1 renal
  TGI: > 318 µM
